{"source": "patent US9827228B2", "about": "“Opioid receptor modulators and use thereof” (priority 2015, dated 2017)", "key": {"[1]": {"tested_on": "B6 mice", "test": "Tail-flick test", "assay_type": "in vivo", "details": "for AUC of inhibition of the tail-flick response: 0-180 min", "experimental": "Male wild-type B6 mice (25-30 g) were kept in a temperature-controlled animal room with a 12-h light/dark cycle. The protocol was approved by the Institutional Animal Care and Use Committee of the National Health Research Institutes, Taiwan. Animal experiments were carried out in accordance with the Policies on the Use of Animals in Neuroscience Research and the ethical guidelines for investigations of experimental pain in conscious animals, International Association for the Study of Pain.\nTail-Flick Analgesia Meter (Columbia Instruments, Trussville, Ala., USA) was used to measure the tail-flick latencies of mice. The cut-off time for each measurement was 10 s to avoid tissue damage. Basal latencies (in seconds) were recorded before treatment and test latencies (also in seconds) were recorded at 30, 60, 90, 120, and 180 minutes after an intravenous injection of compounds. Time-response curves from compounds at various concentrations were obtained for anti-nociceptive effects occurring between 0 and 180 minutes. The AUC values corresponding to the various concentrations were also calculated. The anti-nociceptive effects were quantitatively calculated by substracting the basal latency from the test latency. An ED50 value was determined by an up-and-down method reported in Crocker et al., Pharmacol Biochem Behav, 1984, 21, 133-136.\nTo investigate whether AAMs could change the innate character of MOR to be activated by naloxone in vivo, tail-flick tests after acute treatment were performed. […] Unexpectedly, in mice injected only with the vehicle not containing naloxone, no anti-nociception effect was observed even with the highest dose of Compound 1 at 100 mg/kg. These in vivo results again indicate that Compound 1 served as an AAM of the MOR."}, "[2]": {"target": "T1, hMOR (Homo sapiens, UniProt P35372)", "T1 construct": "host or cells: CHO-K1", "T1 sequence (P35372 whole entry)": "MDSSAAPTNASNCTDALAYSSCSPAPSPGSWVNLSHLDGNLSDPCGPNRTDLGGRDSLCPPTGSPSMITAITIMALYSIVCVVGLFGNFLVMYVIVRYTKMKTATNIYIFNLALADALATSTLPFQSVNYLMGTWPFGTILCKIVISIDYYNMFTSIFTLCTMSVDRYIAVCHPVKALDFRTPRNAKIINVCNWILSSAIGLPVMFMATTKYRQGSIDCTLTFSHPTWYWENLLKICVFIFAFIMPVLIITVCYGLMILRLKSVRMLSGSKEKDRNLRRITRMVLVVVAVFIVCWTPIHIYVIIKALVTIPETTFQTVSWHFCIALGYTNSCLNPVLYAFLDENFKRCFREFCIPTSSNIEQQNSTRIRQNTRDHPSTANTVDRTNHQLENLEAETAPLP", "test": "cell-based", "assay_type": "cell-based", "details": "for AUC: AUC of [Ca2+]i fluorescence", "experimental": "Chinese hamster ovary (CHO)-K1 cells expressing hMOR and Gα15 (CHO-K1/MOR/Gα15) were cultured in F12 medium (GIBCO) supplemented with 10 μg/mL Hygromycin B (Invivogen), 20 μg/mL Zeocin (Invivogen) and P/S/F (100 units/mL penicillin, 100 μg/mL streptomycin, 10% fetal bovine serum). The cultures were incubated at 37° C. in a humidified 5% CO2 incubator.\nOne day prior to running the assay, CORNING® black 96-well assay plates having a clear flat bottom were coated with a 0.1 mg/mL Poly-L-Lysine solution. CHO-K1/MOR/Gα15 cells were suspended in F12 medium and plated at a density of about 8×10^4 cells/well in 200 μL medium. Cells were incubated under a humidified atmosphere of 10% CO2 at 37° C. overnight to reach an 80-90% confluent cell monolayer before the assay. On the day of the assay, 150 μL medium was removed from each well of the plates. To each well were added FLIPR® calcium assay reagents (Molecular Devices Corporation, Sunnyvale, Calif., USA; 50 μL) dissolved in 1× assay buffer (HBSS: KCl 5 mM, KH2PO4 0.3 mM, NaCl 138 mM, NaHCO3 4 mM, Na2HPO4 0.3 mM, d-glucose 5.6 mM, with additional 20 mM HEPES and […], pH 7.4) and 2.5 mM probenecid. After incubation at 37° C. for 1 hour, a test compound, alone or together with naloxone (a MOR antagonist), was also added to each well. Using a FlexStationlll instrument (Molecular Devices Corp.), increments of the [Ca^2+]i fluorescence after robotic injection of the cell suspension were monitored at 1.52 s intervals using the excitation wavelength of 485 nm and the emission wavelength of 525 nm. The [Ca^2+]i fluorescence was measured up to 90 s after the injection. The fluorescence intensity from 6 to 12 wells of cells were averaged and the relative amount of [Ca^2+]i release was determined by integrating the AUC of the [Ca^2+]i fluorescence averages.\nA CHO-K1 cell line expressing MOR and Gα15 (GenScript) was used to set up a sensitive high-throughput screen (HTS) system. […] The HTS was performed in the absence or presence of naloxone (an opioid antagonist; 20 nM), to identify AAMs."}, "[3]": {"details": "combined with naloxone, CHO-K1/MOR/Gα15 cells"}, "[4]": {"details": "EC50, combined with naloxone, CHO-K1/MOR/Gα15 cells"}, "[5]": {"details": "combined with naloxone, CHO-K1/MOR/Gα15 cells, read-out: EC50"}}, "note": "Read-outs that look alike come from different tables or passages of the source."}
{"smiles": "C=CCN1CC[C@]23c4c5ccc(O)c4O[C@H]2C(=O)CC[C@@]3(O)[C@H]1C5", "note": "[naloxone, reference compound]", "values": [{"measurement": "ED50", "setting": "[1]; Mus musculus, mice injected with Compound 1 at 100 mg/kg, read-out: ED50 in inhibiting the tail-flick response", "value": "17.5 ± 4", "unit": "mg/kg"}]}
{"smiles": "CCc1ccccc1Nc1nc(-c2sc(C)nc2C)cs1", "note": "[Compound 1, N-(2-Ethylphenyl)-2′,4′-dimethyl-4,5′-bi-1,3-thiazol-2-amine]", "values": [{"measurement": "AUC", "setting": "[2]; [3]", "value": "+ (+: >5000)"}, {"measurement": "EC50", "setting": "[2]; EC50, combined with naloxone", "value": "< 10", "unit": "µM"}, {"measurement": "EC50", "setting": "[2]; EC50, combined with naloxone (20 nM)", "value": 4, "unit": "µM"}, {"measurement": "EC50", "setting": "[2]; [4]", "value": "3 to 10", "unit": "µM"}, {"measurement": "effect on Emax and potency of naloxone", "setting": "[2]; concentration-response curves of naloxone at several concentrations of Compound 1", "value": "both Emax and potency of naloxone were altered"}, {"measurement": "calcium release", "setting": "[2]; in the presence of naloxone", "value": "significant calcium release"}, {"measurement": "PAM or NAM effect: Emax and potency of morphine", "setting": "[2]; morphine with Compound 1 at 30, 10, or 3.3 μM", "value": "neither Emax nor potency of morphine was significantly altered"}, {"measurement": "anti-nociceptive effect", "setting": "[1]; Compound 1 alone at 25, 50, or 100 mg/kg (i.v.), B6 mice", "value": "did not produce any anti-nociceptive effect"}, {"measurement": "AUC of inhibition of the tail-flick response", "setting": "[1]; Compound 1 at 25 mg/kg (i.v.) with naloxone at 10 mg/kg", "value": "114.8±26", "unit": "min×s"}, {"measurement": "AUC of inhibition of the tail-flick response", "setting": "[1]; Compound 1 at 50 mg/kg (i.v.) with naloxone at 10 mg/kg", "value": "159.8±60", "unit": "min×s"}, {"measurement": "AUC of inhibition of the tail-flick response", "setting": "[1]; Compound 1 at 100 mg/kg (i.v.) with naloxone at 10 mg/kg", "value": "384±87", "unit": "min×s"}]}
{"smiles": "Cc1nc(C)c(-c2csc(N)n2)s1", "note": "[Compound 130, 2′,4′-Dimethyl-4,5′-bi-1,3-thiazol-2-amine]", "values": [{"measurement": "AUC", "setting": "[2]; [3]", "value": "− (−: <5000)"}, {"measurement": "EC50", "setting": "[2]; [5]", "value": "> 10", "unit": "µM"}]}
{"smiles": "CCc1ccccc1Nc1nc(-c2oc(C)nc2C)cs1", "note": "[Compound 102, 4-(2,4-Dimethyl-1,3-oxazol-5-yl)-N-(2-ethylphenyl)-1,3-thiazol-2-amine]", "values": [{"measurement": "AUC", "setting": "[2]; [3]", "value": "+ (+: >5000)"}, {"measurement": "EC50", "setting": "[2]; EC50, combined with naloxone", "value": "< 10", "unit": "µM"}, {"measurement": "EC50", "setting": "[2]; [4]", "value": "3 to 10", "unit": "µM"}]}
{"smiles": "CCOC(=O)c1cc(-c2csc(Nc3ccccc3CC)n2)on1", "note": "[Compound 128, Ethyl 5-{2-[(2-ethylphenyl)amino]-1,3-thiazol-4-yl}-1,2-oxazole-3-carboxylate]", "values": [{"measurement": "AUC", "setting": "[2]; [3]", "value": "− (−: <5000)"}, {"measurement": "EC50", "setting": "[2]; [5]", "value": "> 10", "unit": "µM"}]}
{"smiles": "Cc1nc(C)c(-c2csc(Nc3cc(Cl)ccc3C)n2)s1", "note": "[Compound 15, N-(5-Chloro-2-methylphenyl)-2′,4′-dimethyl-4,5′-bi-1,3-thiazol-2-amine]", "values": [{"measurement": "AUC", "setting": "[2]; [3]", "value": "− (−: <5000)"}, {"measurement": "EC50", "setting": "[2]; [5]", "value": "> 10", "unit": "µM"}]}
{"smiles": "COc1ccc(Nc2nc(-c3sc(C)nc3C)cs2)c(C)c1", "note": "[Compound 35, N-(4-Methoxy-2-methylphenyl)-2′,4′-dimethyl-4,5′-bi-1,3-thiazol-2-amine]", "values": [{"measurement": "AUC", "setting": "[2]; [3]", "value": "+ (+: >5000)"}, {"measurement": "EC50", "setting": "[2]; [5]", "value": "> 10", "unit": "µM"}]}
